The record followed here is ChEMBL document CHEMBL5537170, “Design, Synthesis, and Anti-Osteoporotic Characterization of Arginine N-Glycosylated Teriparatide Analogs via the Silver-catalyzed Solid-Phase Glycosylation Strategy” (J Med Chem, 2024).

*1 amine or outer side, *2 acyl side, *3 side chain or, on linkers, in order; H or OH if unused. Where a SMILES comes first, the peptide text is derived from it. [ ]: non-standard residue; d: D form. X3 = CC(=O)N[C@@H]1[C@@H](O)[C@H](O)[C@@H](CO)O[C@H]1NC(=N)NCCC[C@H](N[*:1])C(=O)[*:2]; X1 = N=C(NCCC[C@H](N[*:1])C(=O)[*:2])N[C@@H]1O[C@H](CO)[C@@H](O)[C@H](O)[C@H]1O; X7 = N=C(NCCC[C@H](N[*:1])C(=O)[*:2])N[C@H]1O[C@H](CO)[C@@H](O)[C@H](O)[C@@H]1O

The nature of this data set: Cytotoxicity against C57BL/6 mouse Pre-Osteoblast cells assessed as cell death upto 5 uM incubated for 4 days by CCK-8 assay. The format is toxicity, cell-based. The note with it: 96 h, time 4 day.
With `CC[C@H](C)[C@H](NC(=O)[C@H](CCC(=O)O)NC(=O)[C@H](CO)NC(=O)[C@@H](NC(=O)[C@H](CO)NC(C)=O)C(C)C)C(=O)N[C@@H](CCC(N)=O)C(=O)N[C@@H](CC(C)C)C(=O)N[C@@H](CCSC)C(=O)N[C@@H](Cc1cnc[nH]1)C(=O)N[C@@H](CC(N)=O)C(=O)N[C@@H](CC(C)C)C(=O)NCC(=O)N[C@@H](CCCCN)C(=O)N[C@@H](Cc1cnc[nH]1)C(=O)N[C@@H](CC(C)C)C(=O)N[C@@H](CC(N)=O)C(=O)N[C@@H](CO)C(=O)N[C@@H](CCSC)C(=O)N[C@@H](CCC(=O)O)C(=O)N[C@@H](CCCNC(=N)N[C@H]1O[C@H](CO)[C@@H](O)[C@H](O)[C@@H]1O)C(=O)N[C@H](C(=O)N[C@@H](CCC(=O)O)C(=O)N[C@@H](Cc1c[nH]c2ccccc12)C(=O)N[C@@H](CC(C)C)C(=O)N[C@@H](CCCNC(=N)N[C@H]1O[C@H](CO)[C@@H](O)[C@H](O)[C@@H]1O)C(=O)N[C@@H](CCCCN)C(=O)N[C@@H](CCCCN)C(=O)N[C@@H](CC(C)C)C(=O)N[C@@H](CCC(N)=O)C(=O)N[C@@H](CC(=O)O)C(=O)N[C@H](C(=O)N[C@@H](Cc1cnc[nH]1)C(=O)N[C@@H](CC(N)=O)C(=O)N[C@@H](Cc1ccccc1)C(N)=O)C(C)C)C(C)C` (Ac-SVSEIQLMHNLGKHLNSME[X7]VEWL[X7]KKLQDVHNF-NH2), the Activity result is recorded as “Non-Toxic”.

In the case of `CC[C@H](C)[C@H](NC(=O)[C@H](CCC(=O)O)NC(=O)[C@H](CO)NC(=O)[C@@H](NC(=O)[C@H](CO)NC(C)=O)C(C)C)C(=O)N[C@@H](CCC(N)=O)C(=O)N[C@@H](CC(C)C)C(=O)N[C@@H](CCSC)C(=O)N[C@@H](Cc1cnc[nH]1)C(=O)N[C@@H](CC(N)=O)C(=O)N[C@@H](CC(C)C)C(=O)NCC(=O)N[C@@H](CCCCN)C(=O)N[C@@H](Cc1cnc[nH]1)C(=O)N[C@@H](CC(C)C)C(=O)N[C@@H](CC(N)=O)C(=O)N[C@@H](CO)C(=O)N[C@@H](CCSC)C(=O)N[C@@H](CCC(=O)O)C(=O)N[C@@H](CCCNC(=N)N)C(=O)N[C@H](C(=O)N[C@@H](CCC(=O)O)C(=O)N[C@@H](Cc1c[nH]c2ccccc12)C(=O)N[C@@H](CC(C)C)C(=O)N[C@@H](CCCNC(=N)N[C@@H]1O[C@H](CO)[C@@H](O[C@@H]2O[C@H](CO)[C@H](O)[C@H](O)[C@H]2O)[C@H](O)[C@H]1O)C(=O)N[C@@H](CCCCN)C(=O)N[C@@H](CCCCN)C(=O)N[C@@H](CC(C)C)C(=O)N[C@@H](CCC(N)=O)C(=O)N[C@@H](CC(=O)O)C(=O)N[C@H](C(=O)N[C@@H](Cc1cnc[nH]1)C(=O)N[C@@H](CC(N)=O)C(=O)N[C@@H](Cc1ccccc1)C(N)=O)C(C)C)C(C)C`, the Activity entry is recorded as “Non-Toxic”.

For `CC[C@H](C)[C@H](NC(=O)[C@H](CCC(=O)O)NC(=O)[C@H](CO)NC(=O)[C@@H](NC(=O)[C@H](CO)NC(C)=O)C(C)C)C(=O)N[C@@H](CCC(N)=O)C(=O)N[C@@H](CC(C)C)C(=O)N[C@@H](CCSC)C(=O)N[C@@H](Cc1cnc[nH]1)C(=O)N[C@@H](CC(N)=O)C(=O)N[C@@H](CC(C)C)C(=O)NCC(=O)N[C@@H](CCCCN)C(=O)N[C@@H](Cc1cnc[nH]1)C(=O)N[C@@H](CC(C)C)C(=O)N[C@@H](CC(N)=O)C(=O)N[C@@H](CO)C(=O)N[C@@H](CCSC)C(=O)N[C@@H](CCC(=O)O)C(=O)N[C@@H](CCCNC(=N)N[C@@H]1O[C@H](CO)[C@@H](O)[C@H](O)[C@H]1NC(C)=O)C(=O)N[C@H](C(=O)N[C@@H](CCC(=O)O)C(=O)N[C@@H](Cc1c[nH]c2ccccc12)C(=O)N[C@@H](CC(C)C)C(=O)N[C@@H](CCCNC(=N)N[C@@H]1O[C@H](CO)[C@@H](O)[C@H](O)[C@H]1NC(C)=O)C(=O)N[C@@H](CCCCN)C(=O)N[C@@H](CCCCN)C(=O)N[C@@H](CC(C)C)C(=O)N[C@@H](CCC(N)=O)C(=O)N[C@@H](CC(=O)O)C(=O)N[C@H](C(=O)N[C@@H](Cc1cnc[nH]1)C(=O)N[C@@H](CC(N)=O)C(=O)N[C@@H](Cc1ccccc1)C(N)=O)C(C)C)C(C)C` (Ac-SVSEIQLMHNLGKHLNSME[X3]VEWL[X3]KKLQDVHNF-NH2), the Activity entry was “Non-Toxic”.

On to `CC[C@H](C)[C@H](NC(=O)[C@H](CCC(=O)O)NC(=O)[C@H](CO)NC(=O)[C@@H](NC(=O)[C@H](CO)NC(C)=O)C(C)C)C(=O)N[C@@H](CCC(N)=O)C(=O)N[C@@H](CC(C)C)C(=O)N[C@@H](CCSC)C(=O)N[C@@H](Cc1cnc[nH]1)C(=O)N[C@@H](CC(N)=O)C(=O)N[C@@H](CC(C)C)C(=O)NCC(=O)N[C@@H](CCCCN)C(=O)N[C@@H](Cc1cnc[nH]1)C(=O)N[C@@H](CC(C)C)C(=O)N[C@@H](CC(N)=O)C(=O)N[C@@H](CO)C(=O)N[C@@H](CCSC)C(=O)N[C@@H](CCC(=O)O)C(=O)N[C@@H](CCCNC(=N)N[C@@H]1O[C@H](CO)[C@@H](O)[C@H]1O)C(=O)N[C@H](C(=O)N[C@@H](CCC(=O)O)C(=O)N[C@@H](Cc1c[nH]c2ccccc12)C(=O)N[C@@H](CC(C)C)C(=O)N[C@@H](CCCNC(=N)N[C@@H]1O[C@H](CO)[C@@H](O)[C@H]1O)C(=O)N[C@@H](CCCCN)C(=O)N[C@@H](CCCCN)C(=O)N[C@@H](CC(C)C)C(=O)N[C@@H](CCC(N)=O)C(=O)N[C@@H](CC(=O)O)C(=O)N[C@H](C(=O)N[C@@H](Cc1cnc[nH]1)C(=O)N[C@@H](CC(N)=O)C(=O)N[C@@H](Cc1ccccc1)C(N)=O)C(C)C)C(C)C`, for which the Activity result is “Non-Toxic”.

For the molecule `CC[C@H](C)[C@H](NC(=O)[C@H](CCC(=O)O)NC(=O)[C@H](CO)NC(=O)[C@@H](NC(=O)[C@H](CO)NC(C)=O)C(C)C)C(=O)N[C@@H](CCC(N)=O)C(=O)N[C@@H](CC(C)C)C(=O)N[C@@H](CCSC)C(=O)N[C@@H](Cc1cnc[nH]1)C(=O)N[C@@H](CC(N)=O)C(=O)N[C@@H](CC(C)C)C(=O)NCC(=O)N[C@@H](CCCCN)C(=O)N[C@@H](Cc1cnc[nH]1)C(=O)N[C@@H](CC(C)C)C(=O)N[C@@H](CC(N)=O)C(=O)N[C@@H](CO)C(=O)N[C@@H](CCSC)C(=O)N[C@@H](CCC(=O)O)C(=O)N[C@@H](CCCNC(=N)N[C@@H]1O[C@H](CO)[C@@H](O[C@H]2O[C@H](CO)[C@@H](O)[C@H](O)[C@H]2O)[C@H](O)[C@H]1O)C(=O)N[C@H](C(=O)N[C@@H](CCC(=O)O)C(=O)N[C@@H](Cc1c[nH]c2ccccc12)C(=O)N[C@@H](CC(C)C)C(=O)N[C@@H](CCCNC(=N)N)C(=O)N[C@@H](CCCCN)C(=O)N[C@@H](CCCCN)C(=O)N[C@@H](CC(C)C)C(=O)N[C@@H](CCC(N)=O)C(=O)N[C@@H](CC(=O)O)C(=O)N[C@H](C(=O)N[C@@H](Cc1cnc[nH]1)C(=O)N[C@@H](CC(N)=O)C(=O)N[C@@H](Cc1ccccc1)C(N)=O)C(C)C)C(C)C`, the Activity result is “Non-Toxic”.

Turning to `CC[C@H](C)[C@H](NC(=O)[C@H](CCC(=O)O)NC(=O)[C@H](CO)NC(=O)[C@@H](NC(=O)[C@H](CO)NC(C)=O)C(C)C)C(=O)N[C@@H](CCC(N)=O)C(=O)N[C@@H](CC(C)C)C(=O)N[C@@H](CCSC)C(=O)N[C@@H](Cc1cnc[nH]1)C(=O)N[C@@H](CC(N)=O)C(=O)N[C@@H](CC(C)C)C(=O)NCC(=O)N[C@@H](CCCCN)C(=O)N[C@@H](Cc1cnc[nH]1)C(=O)N[C@@H](CC(C)C)C(=O)N[C@@H](CC(N)=O)C(=O)N[C@@H](CO)C(=O)N[C@@H](CCSC)C(=O)N[C@@H](CCC(=O)O)C(=O)N[C@@H](CCCNC(=N)N)C(=O)N[C@H](C(=O)N[C@@H](CCC(=O)O)C(=O)N[C@@H](Cc1c[nH]c2ccccc12)C(=O)N[C@@H](CC(C)C)C(=O)N[C@@H](CCCNC(=N)N[C@@H]1O[C@H](CO)[C@@H](O)[C@H](O)[C@H]1O)C(=O)N[C@@H](CCCCN)C(=O)N[C@@H](CCCCN)C(=O)N[C@@H](CC(C)C)C(=O)N[C@@H](CCC(N)=O)C(=O)N[C@@H](CC(=O)O)C(=O)N[C@H](C(=O)N[C@@H](Cc1cnc[nH]1)C(=O)N[C@@H](CC(N)=O)C(=O)N[C@@H](Cc1ccccc1)C(N)=O)C(C)C)C(C)C`, the Activity result is reported as “Non-Toxic”.

Turning to `CC[C@H](C)[C@H](NC(=O)[C@H](CCC(=O)O)NC(=O)[C@H](CO)NC(=O)[C@@H](NC(=O)[C@H](CO)NC(C)=O)C(C)C)C(=O)N[C@@H](CCC(N)=O)C(=O)N[C@@H](CC(C)C)C(=O)N[C@@H](CCSC)C(=O)N[C@@H](Cc1cnc[nH]1)C(=O)N[C@@H](CC(N)=O)C(=O)N[C@@H](CC(C)C)C(=O)NCC(=O)N[C@@H](CCCCN)C(=O)N[C@@H](Cc1cnc[nH]1)C(=O)N[C@@H](CC(C)C)C(=O)N[C@@H](CC(N)=O)C(=O)N[C@@H](CO)C(=O)N[C@@H](CCSC)C(=O)N[C@@H](CCC(=O)O)C(=O)N[C@@H](CCCNC(=N)N[C@H]1O[C@H](CO)[C@@H](O)[C@H](O)[C@@H]1O)C(=O)N[C@H](C(=O)N[C@@H](CCC(=O)O)C(=O)N[C@@H](Cc1c[nH]c2ccccc12)C(=O)N[C@@H](CC(C)C)C(=O)N[C@@H](CCCNC(=N)N)C(=O)N[C@@H](CCCCN)C(=O)N[C@@H](CCCCN)C(=O)N[C@@H](CC(C)C)C(=O)N[C@@H](CCC(N)=O)C(=O)N[C@@H](CC(=O)O)C(=O)N[C@H](C(=O)N[C@@H](Cc1cnc[nH]1)C(=O)N[C@@H](CC(N)=O)C(=O)N[C@@H](Cc1ccccc1)C(N)=O)C(C)C)C(C)C`, the Activity result is listed as “Non-Toxic”.

For the molecule `CC[C@H](C)[C@H](NC(=O)[C@H](CCC(=O)O)NC(=O)[C@H](CO)NC(=O)[C@@H](NC(=O)[C@H](CO)NC(C)=O)C(C)C)C(=O)N[C@@H](CCC(N)=O)C(=O)N[C@@H](CC(C)C)C(=O)N[C@@H](CCSC)C(=O)N[C@@H](Cc1cnc[nH]1)C(=O)N[C@@H](CC(N)=O)C(=O)N[C@@H](CC(C)C)C(=O)NCC(=O)N[C@@H](CCCCN)C(=O)N[C@@H](Cc1cnc[nH]1)C(=O)N[C@@H](CC(C)C)C(=O)N[C@@H](CC(N)=O)C(=O)N[C@@H](CO)C(=O)N[C@@H](CCSC)C(=O)N[C@@H](CCC(=O)O)C(=O)N[C@@H](CCCNC(=N)N[C@@H]1O[C@H](CO)[C@@H](O)[C@H](O)[C@H]1O)C(=O)N[C@H](C(=O)N[C@@H](CCC(=O)O)C(=O)N[C@@H](Cc1c[nH]c2ccccc12)C(=O)N[C@@H](CC(C)C)C(=O)N[C@@H](CCCNC(=N)N[C@@H]1O[C@H](CO)[C@@H](O)[C@H](O)[C@H]1O)C(=O)N[C@@H](CCCCN)C(=O)N[C@@H](CCCCN)C(=O)N[C@@H](CC(C)C)C(=O)N[C@@H](CCC(N)=O)C(=O)N[C@@H](CC(=O)O)C(=O)N[C@H](C(=O)N[C@@H](Cc1cnc[nH]1)C(=O)N[C@@H](CC(N)=O)C(=O)N[C@@H](Cc1ccccc1)C(N)=O)C(C)C)C(C)C` (Ac-SVSEIQLMHNLGKHLNSME[X1]VEWL[X1]KKLQDVHNF-NH2), the Activity entry is listed as “Non-Toxic”.
